Experimental findings from patent publication US10597377B2, “Somatostatin modulators and uses thereof” (priority 2016, dated 2020) are described below.

human SSTR2, sequence (P30874 whole entry): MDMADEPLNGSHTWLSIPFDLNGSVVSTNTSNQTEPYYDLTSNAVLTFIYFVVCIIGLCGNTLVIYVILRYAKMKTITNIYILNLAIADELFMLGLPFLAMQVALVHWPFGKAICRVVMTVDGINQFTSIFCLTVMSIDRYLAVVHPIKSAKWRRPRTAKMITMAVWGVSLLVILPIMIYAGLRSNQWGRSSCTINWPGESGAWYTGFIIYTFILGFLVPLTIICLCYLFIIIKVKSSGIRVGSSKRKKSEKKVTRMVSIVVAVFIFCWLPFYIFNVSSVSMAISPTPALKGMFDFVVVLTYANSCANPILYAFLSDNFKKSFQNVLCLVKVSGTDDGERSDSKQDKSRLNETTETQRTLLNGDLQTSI

In the test the target is human SSTR2 (Homo sapiens (Human), UniProt P30874). The experiment in a line: Human SSTR2 intracellular cAMP functional assay for agonists (CHO-K1 cells, HTRF). The class given is cell-based. Conditions: inhibition of cAMP activities via human SST2R; CHO-K1 cells stably expressing human SSTR2. Here is the method:
Functional Assay for SSTR2 Agonists
General overview: All five SSTR subtypes are Gi coupled G-protein coupled receptors (GPCRs) that lead to decreases in intracellular cyclic AMP (cAMP) when activated by an agonist. […] Human SSTR2 intracellular cAMP assay is described below. The human SSTR1, 3, 4 and 5 assays follow the same protocol of SSTR2.
The cells are cultured at 37° C., 5% CO2 and 95% humidity. […] The cells are incubated for 20 minutes at 37° C. […] The cells are treated with 50 μL of lysis buffer (HRTF cAMP kit, Cisbio). […] The time-resolved fluorescent signal is read with a Tecan M1000Pro multiplate reader. The intracellular cAMP concentrations are calculated by regression to a standard curve and are plotted vs. the concentration of the compounds of the invention and the EC50 of the compounds are calculated using standard methods. All data manipluations are in GraphPad Prism v6.
(TR-FRET usually uses a lanthanide donor and a delayed reading to cut background.)
For `COC(=O)Nc1ncc(F)cc1-c1ccc2ncc(-c3cc(C)cc(F)c3)c(N3CCC(N)CC3)c2c1` [2-182, methyl N-{3-[4-(4-aminopiperidin-1-yl)-3-(3-fluoro-5-methylphenyl)quinolin-6-yl]-5-fluoropyridin-2-yl}carbamate], the concentration giving a half-maximal response (EC50) (usually the concentration needed to bring the measured effect to its halfway point) is under 10 nM.

In turn, `Cc1cc(F)cc(-c2cnc3ccc(-c4cc(F)cc(C#N)c4O)nc3c2N2CCC(N)CC2)c1` [3-2, 3-[8-(4-aminopiperidin-1-yl)-7-(3-fluoro-5-methylphenyl)-1,5-naphthyridin-2-yl]-5-fluoro-2-hydroxybenzonitrile] showed an EC50 of under 10 nM.

Take `C#Cc1ccnc(-c2ccc3ncc(-c4cc(F)cc(F)c4)c(N4CC[C@H]5NCCO[C@@H]5C4)c3c2)c1N` [2-277, 2-{4-[trans-octahydro-1H-pyrido[3,4-b]morpholin-6-yl]-3-(3,5-difluorophenyl)quinolin-6-yl]-4-ethynylpyridin-3-amine]: the EC50 is under 10 nM.

Consider `N#Cc1cncc(-c2ccc3ncc(-c4cc(F)cc(F)c4)c(N4CC[C@H]5NCCO[C@@H]5C4)c3c2)c1N` (racemic) [2-244, 5-{4-[trans-octahydro-1H-pyrido[3,4-b]morpholin-6-yl]-3-(3,5-difluorophenyl)quinolin-6-yl}-4-aminopyridine-3-carbonitrile], for which the EC50 is under 10 nM.

In turn, `COC(=O)Nc1c(F)cncc1-c1ccc2ncc(-c3cc(C)cc(F)c3)c(N3CCC(N)CC3)c2c1` [2-171, methyl N-{3-[4-(4-aminopiperidin-1-yl)-3-(3-fluoro-5-methylphenyl)quinolin-6-yl]-5-fluoropyridin-4-yl}carbamate] displayed an EC50 of under 10 nM.

As to `Nc1ncccc1-c1ccc2ncc(-c3cc(F)cc(F)c3)c(N3CC[C@H]4NCCO[C@@H]4C3)c2c1` (racemic) [2-246], the EC50 is under 10 nM.

The compound `Cc1cc(F)cc(-c2nnc3cc(Cl)c(-c4cc(F)cc(C(N)=O)c4)cc3c2N2CC[C@@H](N)[C@H](O)C2)c1` (relative stereo) [1-26, 3-{4-[trans-4-amino-3-hydroxypiperidin-1-yl]-7-chloro-3-(3-fluoro-5-methylphenyl)cinnolin-6-yl}-5-fluorobenzamide] gave a half-maximal effective concentration (EC50) of under 10 nM.
